Values quoted from earlier work as cited in US9358298B2, “17-hydroxyprogesterone ester containing oral compositions and related methods” (Lipocine Inc., priority 2011, dated 2016).

How the values were obtained:
[1] = given by mouth; Saxton et al. 2004, Greene NEJM

CCCCCC(=O)O[C@]1(C(C)=O)CC[C@H]2[C@@H]3CCC4=CC(=O)CC[C@]4(C)[C@H]3CC[C@@]21C [17-hydroxyprogesterone caproate, 17-alpha-hydroxyprogesterone caproate]
solubility in water: < 0.02 µg/mL | oral activity [1]: no oral activity
